{
  "source": "patent US10729782B2",
  "about": "“Antibody-drug conjugate produced by binding through linker having hydrophilic structure” (DAIICHI SANKYO COMPANY, LIMITED, priority 2012, dated 2020)",
  "origin": "cited, not measured here",
  "key": {"[1]": {"tested_on": "human tumor subcutaneously transplanted mouse model", "conditions": "cited from earlier work"}, "topoisomerase I": {"target": "T1, topoisomerase I (Homo sapiens, UniProt P11387)", "T1 sequence (P11387 1-765)": "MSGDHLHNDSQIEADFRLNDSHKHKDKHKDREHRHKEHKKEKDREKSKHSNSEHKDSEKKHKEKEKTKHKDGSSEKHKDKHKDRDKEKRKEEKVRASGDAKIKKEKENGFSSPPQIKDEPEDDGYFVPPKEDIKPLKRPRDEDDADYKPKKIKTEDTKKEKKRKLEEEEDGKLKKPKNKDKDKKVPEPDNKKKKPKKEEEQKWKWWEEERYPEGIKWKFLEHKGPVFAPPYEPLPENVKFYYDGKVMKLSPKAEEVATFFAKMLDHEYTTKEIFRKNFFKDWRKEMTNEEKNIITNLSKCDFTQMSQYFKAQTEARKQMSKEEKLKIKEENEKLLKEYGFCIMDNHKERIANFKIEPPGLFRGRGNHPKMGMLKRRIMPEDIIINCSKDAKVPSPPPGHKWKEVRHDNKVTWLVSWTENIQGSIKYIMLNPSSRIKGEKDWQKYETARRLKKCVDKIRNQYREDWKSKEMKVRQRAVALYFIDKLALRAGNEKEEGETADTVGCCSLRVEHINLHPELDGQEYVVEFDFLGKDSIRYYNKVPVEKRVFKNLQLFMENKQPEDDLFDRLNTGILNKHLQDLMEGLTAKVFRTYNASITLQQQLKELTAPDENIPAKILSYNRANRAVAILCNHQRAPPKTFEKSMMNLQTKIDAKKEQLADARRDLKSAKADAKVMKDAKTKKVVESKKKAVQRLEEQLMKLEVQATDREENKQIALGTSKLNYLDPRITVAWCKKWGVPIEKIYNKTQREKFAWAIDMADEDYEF", "conditions": "compared with SN-38 and topotecan; cited from earlier work"}, "various cancer cells": {"tested_on": "various cancer cells", "conditions": "against various cancer cells, compared with SN-38 and topotecan; cited from earlier work"}},
  "data": [
    {"smiles": "CC[C@@]1(O)C(=O)OCc2c1cc1n(c2=O)Cc2c-1nc1cc(F)c(C)c3c1c2[C@@H](N)CC3", "note": "[exatecan, (1S,9S)-1-amino-9-ethyl-5-fluoro-2,3-dihydro-9-hydroxy-4-methyl-1H,12H-benzo[de]pyrano[3′,4′:6,7]indolizino[1,2-b]quinolin-10,13(9H,15H)-dione]", "values": [
      {"measurement": "antitumor effect", "setting": "[1]", "value": "potent antitumor effect"},
      {"measurement": "inhibitory activity on topoisomerase I", "setting": "topoisomerase I", "value": "higher than SN-38"},
      {"measurement": "in vitro cytocidal activity", "setting": "various cancer cells", "value": "higher in vitro cytocidal activity"}
    ]}
  ]
}
